The subject of series [1] is Zika virus. The series can be described thus: Antiviral activity against ZIKV MR766NIID expressing GFP infected in african green monkey Vero E6 assessed as reduction in viral replication incubated for 24 hrs by flow cytometry assay. Conditions: for Activity: dose 0.3-100 µM. The class given is functional, organism-based.
A short description of series [2]: Selectivity index, ratio of IC50 for cytotoxicity against african green monkey Vero E6 cells to IC50 for ZIKV MR766NIID expressing GFP infected in african green monkey. The series is classed as toxicity, cell-based. Conditions: read-out: Ratio IC50.
For series [3], the system named is Zika virus. The series can be described thus: Antiviral activity against ZIKV MR766NIID expressing GFP infected in african green monkey Vero E6 assessed as reduction in viral replication measured after 24 hrs by flow cytometry assay. The class given is functional. Also on record: scale not given: the % may be the effect or the level left.
Series [4] concerns Zika virus. In words: Antiviral activity against ZIKV MR766NIID expressing GFP infected in african green monkey Vero E6 assessed as reduction in virus attachment to cell surface at 25 uM incubated for 1 hr by RT-qPCR analysis relative to control. The series is classed as functional. Also noted: scale not given: the % may be the effect or the level left.
For series [5], the system named is Zika virus. In words: Antiviral activity against ZIKV MR766NIID expressing GFP infected in african green monkey Vero E6 assessed as reduction in viral replication at 50 uM incubated for 24 hrs by flow cytometry assay relative to control. The series is classed as functional. Also on record: scale not given: the % may be the effect or the level left.
For series [6], the system named is Zika virus. The series can be described thus: Antiviral activity against ZIKV MR766NIID expressing GFP infected in african green monkey Vero E6 assessed as neutralization of viral infection at 25 uM compound preincubated with virus for 2 hrs followed by 0.7 uM compound addition and measured after 2 hrs by flow cytometry analysis relative to control. The series is classed as functional, organism-based. Conditions: time 4.0 hrs.

The nature of series [7]: Cytotoxicity against african green monkey Vero E6 cells assessed as cell viability incubated for 48 hrs by MTS assay. The series is classed as toxicity, cell-based, Vero C1008. Conditions: African green monkey (Chlorocebus sabaeus).
Series [8] relates to Zika virus. In words: Antiviral activity against ZIKV MR766NIID expressing GFP infected in african green monkey Vero E6 assessed as reduction in viral replication preincubated for 2 hrs and measured after 22 hrs by flow cytometry assay. The class given is functional, organism-based. Conditions: time 24.0 hrs.
Another series deals with Vero C1008. In words: Cytotoxicity against african green monkey Vero E6 cells assessed as cell viability at 100 uM incubated for 48 hrs by MTS assay. The class given is toxicity, cell-based. Conditions: chlorocebus sabaeus, vero c1008, 48 h.

Molecules are shown by their SMILES. Active and inactive are the calls of the source. The calls are words filed in the database; no cut-off is given here.

Take `CCCCCCCCCCCCCCCCCC(=O)O[C@H]1[C@@H](O[C@H](CO)C(=O)O)O[C@H](CO)[C@@H](O)[C@@H]1OC(=O)C(C)C`: the IC50 in the series on Zika virus [1] (Vero C1008, 24 h) was found to be 10.5 µM. For the same compound, the Activity result with Zika virus [1] was “Dose-dependent-effect”; with Zika virus [3] it was 100%; with Zika virus [4], 90%; with Zika virus [5] it was 100%; with Vero C1008, “Non-toxic”. In addition, the selectivity ratio in series [2] was above 10. Also, the outcome in the series with Zika virus [6] was Active. The IC50 at 48 h in series [7] is above 100 µM. Besides, the result in the series with Zika virus [8] was inactive.

With `CCCCCCCCCCCCCCC(=O)O[C@H]1[C@@H](O[C@H](CO)C(=O)O)O[C@H](CO)[C@@H](O)[C@@H]1O`, the outcome in the series with Zika virus [1] was inactive. For the same compound, the IC50 at 48 h in series [7] was above 100 µM. In addition, the Activity entry in the series with Vero C1008 was “Non-toxic”.

Values taken from ChEMBL document CHEMBL6153108, “Otitiglycomycins A and B: Glycolipids from the Strain Nocardia otitidiscavarum 20S-13 with Antiviral Activity against Zika Virus” (J Nat Prod, 2025).
